Test [1] has as its system Myzus persicae (Green Peach Aphid). The experiment in a line: Myzus persicae feeding/residual contact activity, preventive (sunflower leaf discs). To be noted: Acetamiprid alone, 6 DAT. The test is classed as in vivo. The procedure:
Myzus persicae (Green Peach Aphid):
feeding/residual contact activity, preventive
Sunflower leaf discs were placed on agar in a 24-well microtiter plate and sprayed with the DMSO test solutions of Mixtures (as provided by Table 45). After drying, the leaf discs were infested with an aphid population of mixed ages. After an incubation period of 6 DAT (days after treatment), samples were checked for mortality.

The test system of test [2] is Tetranychus urticae (Two-Spotted Spider Mite). The experiment in a line: Tetranychus urticae feeding/contact activity, preventive (bean leaf discs). The test is classed as in vivo. To be noted: mobile stages. The text has this:
Tetranychus urticae (Two-Spotted Spider Mite): feeding/contact activity, preventive
Bean leaf discs on agar in 24-well microtiter plates were sprayed with the DMSO test solutions of certain Mixtures (as provided by Table 45). After drying, the leaf discs were infested with mite populations of mixed ages. 8 days later, discs were checked for mortality against mobile stages.

Consider one compound from US9560851B2, “Pesticidal mixtures including spiroheterocyclic pyrrolidine diones” (Syngenta Participations AG, priority 2012, dated 2017).

Take `C/C(=N\C#N)N(C)Cc1ccc(Cl)nc1` [Acetamiprid]: the “AVERAGE DEAD IN % AFTER 6 DAYS” value was 0% in test [1] (0.1 PPM AI); 0% in test [1] (0.2 PPM AI); 0% in test [1] (0.4 PPM AI); 0% in test [1] (0.8 PPM AI); 27% in test [1] (1.6 PPM AI). Also, the “AVERAGE DEAD IN % AFTER 8 DAYS” value in test [2] (Table 47, Acetamiprid alone, 50 PPM AI) amounted to 0%; in test [2] (Table 47, Acetamiprid alone, 100 PPM AI), 0%; in test [2] (Table 47, Acetamiprid alone, 200 PPM AI), 0%; in test [2] (Table 47, Acetamiprid alone, 400 PPM AI) it was 0%; in test [2] (Table 47, Acetamiprid alone, 800 PPM AI) it was 0%; in test [2] (Table 48, Acetamiprid alone, 50 PPM AI), 0%. Besides, the “AVERAGE DEAD IN % AFTER 8 DAYS” value in test [2] (Table 48, Acetamiprid alone, 100 PPM AI) stood at 0%; in test [2] (Table 48, Acetamiprid alone, 200 PPM AI) it was 0%; in test [2] (Table 48, Acetamiprid alone, 400 PPM AI), 0%; in test [2] (Table 48, Acetamiprid alone, 800 PPM AI), 0%.
